As usually defined, the Ki is a measure of affinity in units of concentration, obtained from inhibition or displacement.

Structures can show the parent of a compound that is named as a salt.

Among the data in US9745328B2, “Flap modulators” (JANSSEN PHARMACEUTICA NV, priority 2013, dated 2017) are Ki values, retold here.

In the first assay the target is human FLAP (Homo sapiens (Human), UniProt P20292). The experiment in a line: FLAP binding assay (HTRF format). The settings on record: Table 5, human FLAP wild type. In short, it runs like this: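 Averaged over two plates (duplicate wells per plate); output given as HTRF ratio.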
human FLAP, sequence (P20292 whole entry): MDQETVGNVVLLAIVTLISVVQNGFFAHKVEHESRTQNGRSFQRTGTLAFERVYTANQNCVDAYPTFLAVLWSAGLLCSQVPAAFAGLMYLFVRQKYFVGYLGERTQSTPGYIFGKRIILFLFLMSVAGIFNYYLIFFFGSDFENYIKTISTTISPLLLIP
(In general: In TR-FRET formats the signal depends on donor and acceptor labels being close together.)
On to `Nc1cnc(-c2ccc(-c3cccnc3S(=O)(=O)C3CCNC3)cc2F)cn1` (racemic) [Example 803, 5-(2-Fluoro-4-(2-(pyrrolidin-3-ylsulfonyl)pyridin-3-yl)phenyl)pyrazin-2-amine hydrochloride], for which the affinity, expressed as Ki, was 106 nM.

The assay is the same for the next values; noted with them: Table 6 (additional runs), human FLAP wild type.
`Nc1cnc(-c2ccc(-c3ccccc3S(=O)(=O)N3CCC(F)(F)C3)cc2F)cn1` [Example 51, 5-{2′-[(3,3-Difluoropyrrolidin-1-yl)sulfonyl]-3-fluorobiphenyl-4-yl}pyrazin-2-amine] showed a Ki of 3.8 nM.

Regarding `Nc1cnc(-c2ccc(-c3ccccc3S(=O)(=O)N3CCN(c4ncccn4)CC3)cc2F)cn1` [Example 177], the Ki came to 0.5 nM.

Regarding `CC(C)(O)CNS(=O)(=O)c1ccccc1-c1ccc(-c2cnc(N)cn2)c(F)c1` [Example 101, 4′-(5-Aminopyrazin-2-yl)-3′-fluoro-N-(2-hydroxy-2-methylpropyl)biphenyl-2-sulfonamide], the Ki was 1.8 nM.

`CC(C)(O)CNS(=O)(=O)c1ccccc1-c1ccc(-c2cnc(N)nc2)c(F)c1` [Example 272, 4′-(2-Aminopyrimidin-5-y)-3′-fluoro-N-(2-hydroxy-2-methylpropyl)biphenyl-2-sulfonamide trifluoroacetic acid salt]: the inhibition constant (Ki) was found to be 26.9 nM.

`CC(C)(CO)NS(=O)(=O)c1ccccc1-c1ccc(-c2cnc(N)nc2)c(F)c1` [Example 280, 4′-(2-.Aminopyrimidin-5-yl)-3′-fluoro-N-(2-hydroxy-1,1-dimethylethyl)biphenyl-2-sulfonamide trifluoroacetic acid salt] registered a Ki of 3.3 nM.

For the compound `NS(=O)(=O)c1ccccc1-c1ccc(-c2cnc3[nH]ccc3c2)c(F)c1` [Example 368, 3′-Fluoro-4′-(1H-pyrrolo[2,3-b]pyridin 5-yl)biphenyl-2-sulfonamide], the affinity, expressed as Ki, was 13.2 nM.

`CC(=O)N1CCN(S(=O)(=O)c2ccccc2-c2ccc(-c3cnc(N)cn3)c(F)c2)CC1` [Example 57, 5-{2′-[(4-Acetylpiperazin-1-yl)sulfonyl]-3-fluorobiphenyl-4-yl}pyrazin-2-amine] showed an inhibition constant (Ki) of 13.4 nM.

The compound `Nc1cnc(-c2ccc(-c3ccccc3S(=O)(=O)N3CCN4CCCC4C3)cc2F)cn1` (racemic) [Example 61, racemic 5-[3-Fluoro-2′-(hexahydropyrrolo[1,2-a]pyrazin-2(1H)-ylsulfonyl)biphenyl-4-yl]pyrazin-2-amine] came in with a Ki of 15.9 nM.

In turn, `N#CCCN1CCN(S(=O)(=O)c2ccccc2-c2ccc(-c3cnc(N)cn3)c(F)c2)CC1` [Example 174, 3-(4-{[4′-(5-Aminopyrazin-2-yl)-3′-fluoroblphenyl-2-yl]sulfonyl}piperazin-1-yl)propanenitrile] displayed a Ki of 2.4 nM.

`CCNS(=O)(=O)c1cc(C(F)(F)F)ccc1-c1ccc(-c2cnc(N)cn2)c(F)c1` [Example 211, 4′-(5-Aminopyrazin-2-yl)-N-ethyl-3′-fluoro-4-(trifluoromethyl)biphenyl-2-sulfonamide] had a Ki of 0.5 nM.

`CC(=O)NC1CCN(S(=O)(=O)c2ccccc2-c2ccc(-c3cnc(N)cn3)c(F)c2)CC1` [Example 75, N-(1-{[4′-(5-Aminopyrazin-2′yl)-3′-fluorobiphenyl-2-yl]sulfonyl}piperidin-4-yl)acetamide] displayed a Ki of 10.7 nM.

Compound `CC(C)(C)OC(=O)NCCNS(=O)(=O)c1ccccc1-c1ccc(-c2cnc(N)cn2)c(F)c1` [Example 151] yielded an inhibitory constant (Ki) of 1.3 nM.

Regarding `Nc1cnc(-c2ccc(-c3ccccc3NS(=O)(=O)C3CC3)cc2F)cn1` [Example 38, N-(4′-(5-aminopyrazin-2-yl)-3′-fluoro-[1,1′-biphenyl]-2-yl)cyclopropanesulfonamide], affinity was put at a Ki of 28.8 nM.

`Nc1cnc(-c2ccc(-c3ccccc3Sc3cnccn3)cc2F)cn1` [Example 218, 5-[3-Fluoro-2′-(pyrazin-2-ylsulfanyl)biphenyl-4-yl]pyrazin-2′ amine hydrochloride]: the affinity, expressed as Ki, was 3.3 nM.

The compound `CCSc1ccccc1-c1ccc(-c2cnc3[nH]ccc3n2)c(F)c1` [Example 384, 2-[2′-(Ethylsulfanyl)-3-fluorobiphenyl-4-yl]-5H-pyrrolo[2,3-b]pyrazine] registered a Ki of 3.9 nM.

The compound `Nc1ncc(-c2ccc(-c3ccccc3S(=O)(=O)N[C@@H](c3ccccc3)C(F)(F)F)cc2F)cn1` [Example 292, 4′-(2-Aminopyrimidin-5-yl)-3′-fluoro-N-[(1S)-2,2,2-trifluoro-1-phenylethyl]biphenyl-2-sulfonamide trifluoroacetic acid salt] had an inhibition constant Ki of 9.9 nM.

`Nc1cnc(-c2ccc(-c3ccccc3S(=O)(=O)N3CCCC3)cc2F)cn1` [Example 48, 5-[3-Fluoro-2′-(pyrrolidin-1-ylsulfonyl)biphenyl-4-yl]pyrazin-2-amine]: the Ki is 7 nM.

Regarding `CC[C@@H](CO)NS(=O)(=O)c1ccccc1-c1ccc(-c2cnc(N)cn2)c(F)c1` [Example 153, (S)-4′-(5-aminopyrazin-2-yl)-3′-fluoro-N-(1-hydroxybutan-2-yl)-[1,1′-biphenyl]-2-suifonamide], the inhibition constant (Ki) came out at 2.5 nM.

The compound `CC(C)(CO)CNS(=O)(=O)c1ccccc1-c1ccc(-c2cnc(N)cn2)c(F)c1` [Example 103, 4′-(5-Aminopyrazin-2-yl)-3′-fluoro-N-(3-hydroxy-2,2-dimethylpropyl)biphenyl-2-sulfonamide] returned an inhibition constant Ki of 0.3 nM.

Compound `Nc1cnc(-c2ccc(-c3ccccc3S(=O)(=O)NC3CC4CCC3C4)cc2F)cn1` (racemic) [Example 10, (racemic)-(endo)-4′-(5-Aminopyrazin-2-yl)-N-bicyclo[2.2.1]hept-2-yl-3′-fluorobiphenyl-2-sulfonamide racemic] yielded a Ki of 2.7 nM.

As for `CC[C@@H](CO)NS(=O)(=O)c1ccccc1-c1ccc(-c2cnc(N)nc2)c(F)c1` [Example 248, 4′-(2-Aminopyrimidin-5-yl)-3′-fluoro-N-[(1S)-1-(hydroxymethyl)propyl]biphenyl-2-sulfonamide], the Ki is 56.8 nM.

`Nc1ncc(-c2ccc(-c3ccccc3S(=O)(=O)Nc3ccccc3)cc2F)cn1` [Example 285, 4′-(2-Aminopyrimidin-5-yl)-3′-fluoro-N-phenylbiphenyl-2-sulfonamide trifluoroacetic acid salt] registered an inhibition constant Ki of 3.3 nM.

Take `CN(C)S(=O)(=O)c1ccccc1-c1ccc(-c2cnc(N)cn2)c(F)c1` [Example 42, 4′-(5-Aminopyrazin-2-yl)-3′-fluoro-N,N-dimethylbiphenyl-2-sulfonamide]: the affinity, expressed as Ki, was 10.2 nM.

Take `CSc1ccc(F)cc1-c1ccc(-c2cnc3[nH]ccc3n2)c(F)c1` [Example 383]: affinity was put at a Ki of 7.9 nM.

For the compound `CN[C@@H]1CCN(S(=O)(=O)c2ccccc2-c2ccc(-c3cnc(N)cn3)c(F)c2)C1` [Example 126, (R)-5-(3-Fluoro-2′-{[3-(methylamino)pyrrolidin-1-yl]sulfonyl}biphenyl-4-yl)pyrazin-2-amine], the affinity, expressed as Ki, was 141 nM.

As to `CC(NS(=O)(=O)c1ccccc1-c1ccc(-c2cnc3[nH]ccc3n2)c(F)c1)C(F)(F)F` (racemic) [Example 376, 3′-Fluoro-4′-(5H-pyrrolo[2,3-b]pyrazin-2-yl)N-N-(2,2,2-trifluoro-1-methylethyl)biphenyl-2-sulfonamide], affinity was put at a Ki of 0.5 nM.

The compound `Nc1ncc(-c2ccc(-c3ccccc3S(=O)(=O)Cc3nc(C4CC4)no3)cc2F)cn1` [Example 321, 5-(2′-{[(3-Cyclopropyl-1,2,4-oxadiazol-5-yl)methyl]sulfonyl}-3-fluorobiphenyl-4-yl)pyrimidin-2-amine] showed a Ki of 505 nM.

Take `Nc1cnc(-c2ccc(-c3ccccc3S(=O)(=O)Nc3ccc(C(F)(F)F)nc3)cc2F)cn1` [Example 163, 4′-(5-Aminopyrazin-2-yl)-3′-fluoro-N-[6-(trifluoromethyl)pyridin-3-yl]biphenyl-2-sulfonamide]: the affinity corresponds to a Ki of 0.5 nM.

Compound `CNC1CCN(S(=O)(=O)c2ccccc2-c2ccc(-c3cnc(N)cn3)c(F)c2)CC1` [Example 72, 5-{3-Fluoro-2′-{[4-(methylamino)piperidin-1-yl]sulfonyl}biphenyl-4-yl)pyrazin.-2-amine] came in with a Ki of 120 nM.

The assay is the same for the next values; noted with them: human FLAP wild type, Table 6 (additional runs).
Turning to `Nc1cnc(-c2ccc(-c3ccc(Br)cc3F)cc2F)cn1` [Example 696, 5-(4′-Bromo-2′,3-difluoroblphenyl-4-yl)pyrazin-2-amine], the Ki stood at 141 nM.

Compound `Nc1cnc(-c2ccc(-c3cccnc3S(=O)(=O)C3CCNC3)cc2F)cn1` (racemic) [Example 803, 5-(2-Fluoro-4-(2-(pyrrolidin-3-ylsulfonyl)pyridin-3-yl)phenyl)pyrazin-2-amine hydrochloride] returned a Ki of 106 nM.

On to `N#Cc1cc(Oc2ccccc2-c2ccc(-c3cnc(N)nc3)c(F)c2)ccn1` [Example 538, 4-{[4′-(2-Aminopyrimidin-5-yl)-3′-fluorobiphenyl-2-yl]oxy}pyridine-2-carbonitrile], for which the Ki was 20.2 nM.

`Nc1cnc(-c2ccc(-c3cccnc3OC3CCCCC3)cc2F)cn1` [Example 403, 5-{4-[2-(Cyclohexyloxy)pyridin-3-yl]-2-fluorophenyl}pyrazin-2-amine] came in with an inhibitory constant (Ki) of 69.8 nM.

The compound `Nc1ncc(-c2ccc(-c3ccccc3Oc3cccc(C(F)(F)F)n3)cc2F)cn1` [Example 624, 5-(3-Fluoro-2′-{[6-(trifluoromethyl)pyridin-2-yl]oxy}biphenyl-4-yl)pyrimidin-2-amine] had an inhibition constant (Ki) of 32.7 nM.

Regarding `Nc1ncc(-c2ccc(-c3ccc(C(F)(F)F)cc3Oc3ncccn3)cc2F)cn1` [Example 552, 5-[3-Fluoro-2′-(pyrimidin-2-yloxy)-4′-(trifluoromethyl)biphenyl-4-yl]pyrimidin-2-amine], the Ki was found to be 5.5 nM.

With `Nc1cnc(-c2ccc(-c3ccc(OC(F)(F)F)cc3F)cc2F)cn1` [Example 467, 5-[2′,3-Difluoro-4′-(trifluoromethoxy)biphenyl-4-yl]pyrazin-2-amine], the Ki came out at 53.5 nM.

In turn, `CC(C)(C)NS(=O)(=O)c1ccccc1-c1ccc(-c2cnc3c(c2)CCN3)c(F)c1` [Example 431, N-tert-Butyl-4′-(2,3-dihydro-1H-pyrrolo[2,3-b]pyridin-5-yl)-3′-fluorobiphenyl-2-sulfonamide] displayed a Ki of 0.8 nM.

Compound `Nc1cnc(-c2ccc(-c3ccc(C(F)(F)F)cc3C(=O)N3CCOCC3)cc2F)cn1` [Example 521, 5-[3-Fluoro-2′-(morpholin-4-ylcarbonyl)-4′-(trifluoromethyl)biphenyl-4-yl]pyrazin-2-amine] registered a Ki of 5.4 nM.

Still in this assay, the particulars now being: human FLAP wild type, a calculated value of 0.000 indicates Ki less than 1 nM.
As to `Nc1cnc(-c2ccc(-c3ccccc3S(=O)(=O)N3CCN(c4ncccn4)CC3)cc2F)cn1` [Example 177], the inhibition constant (Ki) was less than 1 nM.

Take `CC(C)(CO)CNS(=O)(=O)c1ccccc1-c1ccc(-c2cnc(N)cn2)c(F)c1` [Example 103, 4′-(5-Aminopyrazin-2-yl)-3′-fluoro-N-(3-hydroxy-2,2-dimethylpropyl)biphenyl-2-sulfonamide]: the Ki is less than 1 nM.

Consider `CC(NS(=O)(=O)c1ccccc1-c1ccc(-c2cnc3[nH]ccc3n2)c(F)c1)C(F)(F)F` (racemic) [Example 376, 3′-Fluoro-4′-(5H-pyrrolo[2,3-b]pyrazin-2-yl)N-N-(2,2,2-trifluoro-1-methylethyl)biphenyl-2-sulfonamide], for which the Ki was less than 1 nM.
